Reference: US9512178B2, “Neurogenic brain-derived neurotrophic factor peptides” (Research Foundation for Mental Hygiene, Inc., priority 2012, dated 2016)

Columns and labels:
[1] = target: T1, TrkB receptor (Mus musculus, UniProt P15209); assay: TrkB phosphorylation (Tyr 706) and TrkB level in primary E18 hippocampal cells, with or without K252a; format: cell-based; settings: 1 μM; for increase in the phosphorylation of the TrkB receptor: 5 min, without K252a; for TrkB levels / activation of TrkB (pTrkB Tyr 706 normalized to total TrkB): 1 h
T1 construct: endogenous in cells; host or cells: primary hippocampal neurons from embryonic day 18 C57BL/6 mice
T1 sequence (P15209 32-821): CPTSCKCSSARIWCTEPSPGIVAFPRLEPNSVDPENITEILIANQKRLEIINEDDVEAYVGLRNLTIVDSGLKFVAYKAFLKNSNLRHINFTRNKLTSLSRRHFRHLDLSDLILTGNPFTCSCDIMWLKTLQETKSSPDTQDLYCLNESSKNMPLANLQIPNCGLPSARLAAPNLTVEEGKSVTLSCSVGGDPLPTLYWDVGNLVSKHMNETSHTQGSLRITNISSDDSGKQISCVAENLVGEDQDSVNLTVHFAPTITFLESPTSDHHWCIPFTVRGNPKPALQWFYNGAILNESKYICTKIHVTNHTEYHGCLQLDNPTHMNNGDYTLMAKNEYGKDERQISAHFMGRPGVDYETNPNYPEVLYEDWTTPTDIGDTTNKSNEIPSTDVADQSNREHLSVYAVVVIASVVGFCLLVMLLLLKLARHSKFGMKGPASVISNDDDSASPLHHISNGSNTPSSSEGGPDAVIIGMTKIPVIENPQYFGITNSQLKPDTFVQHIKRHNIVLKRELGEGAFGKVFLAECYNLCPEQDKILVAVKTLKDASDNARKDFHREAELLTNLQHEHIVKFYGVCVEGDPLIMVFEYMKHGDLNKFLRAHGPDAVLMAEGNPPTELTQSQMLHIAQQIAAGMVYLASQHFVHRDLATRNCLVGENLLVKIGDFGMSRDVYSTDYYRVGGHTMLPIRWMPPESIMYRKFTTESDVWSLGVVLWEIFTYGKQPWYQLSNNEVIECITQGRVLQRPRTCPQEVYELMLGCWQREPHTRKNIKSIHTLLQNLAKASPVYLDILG
Protocol: Peptides were dissolved in water in serial dilutions of 10 mM, 1 mM, 100 μM and 10 μM from which the necessary amount was added directly to the culture medium to a final concentration of 0.05 μM, 1 μM, or 10 μM. The BDNF (Peprotech, NJ, USA) was used as a reference in concentrations of 20 ng/ml (0.79 nM) and 100 ng/ml (3.95 nM). Cycloheximide (CHX) (Sigma-Aldrich, St Louis, Mo., USA) was used for blocking protein synthesis. CHX original stock was 100 mg/ml (355.4 mM) in DMSO; from a second stock of 35.54 mM in DMSO, the dilutions were made to the final concentrations of 100 μM. The K252a (CALBIOCHEM/EMD) was used to inhibit the TrkB Receptor. From a stock of 100 μM in DMSO, K252a was diluted to a final working concentration of 200 nM. The E18 primary hippocampal cells were pre-treated with CHX or K252a 1 h prior to the addition of the peptides or BDNF and a time course of these treatments for 15 min, 60 min and 2 days was studied.
Following treatment in 6-well plates, cells were washed 2× in glucose buffered saline, GBS (5.4 mM KCl, 138 mM NaCl, 22 mM glucose, and 2 mM Na—KPO pH 7.2), and then lysed by 5 min incubation on ice in 100 or 150 μl of ice-cold RIPA buffer (PBS, 1% w/v NP-40 from Fisher Scientific, 0.1% w/v SDS, and 0.5% w/v sodium desoxycholate) containing 1 mM AEBSF (Gold Biotechnology, St. Louis, Mo., USA), 10 μg/ml aprotinin (Sigma-Aldrich, St. Louis, Mo., USA), and 20 μg/ml of leupeptin and pepstatin (US Biochemicals, Cleveland, Ohio, USA), and phosphatase inhibitors: NaF, Na orthovanadate, (3-glycerophosphate, and microcystein (Sigma-Aldrich, St. Louis, Mo., USA). Extracts were prepared by collecting and pooling a minimum of 2 wells by scraping, and lysates were centrifuged at 20,000×g for 10 min at 4° C. Protein concentration of each cell lysate was determined using the BCA kit (Thermo Scientific, Rockford, Ill., USA). The lysates (7.5-20 μg total protein) were separated on 10% SDS-PAGE gels (except for BDNF where 12% gels were employed) and transferred to 0.45 μm PVDF membrane (Pall, Pensacola, Fla., USA) for probing with antibodies as noted. Blots were blocked for 1 hr at 37° C. in 1×TBST (0.05% Tween 20 in TBS) containing 5% w/v blotting grade dry milk (Bio-rad, Hercules, Calif., USA), incubated in primary antibody overnight in blocking buffer at 4° C., washed 3×10 min in TBST at room temperature, followed by incubation with secondary antibody, i.e., peroxidase-conjugated anti-mouse or anti rabbit IgG (Jackson ImmunoResearch Laboratories, West Grove, Pa., USA) diluted in blocking buffer. Blots were washed 3×10 min in TBST and immunoreactive protein bands were visualized with enhanced chemiluminescence (ECL) reagents (Pierce, Rockford, Ill., USA). The ECL films of the blots were scanned and analyzed using Multi Gauge software version 3.0 (Fujifilm, Tokyo, Japan).
The following primary antibodies were used: rabbit polyclonal anti-NFM (1:1000; Chemicon/Millipore, Billerica, Mass., USA); mouse monoclonal anti-NeuN, clone A60 (1:500; Millipore, Billerica, Mass., USA); rabbit polyclonal anti-Tuj-1, (3—III-tubulin (Covance; 1:800, Emeryville, Calif., USA); mouse monoclonal SMI 52 to the adult isoforms of MAP-2, MAP2a,b (1:1000; Covance, Emeryvilly, Calif., USA); rabbit polyclonal anti-Synapsin I (1:2000; Stressgen, Farmingdale, N.Y., USA); rabbit monoclonal anti-PSD95 (1:1000; Cell signaling, Danvers, Mass., USA); anti tau 92e (1:10000); mouse monoclonal anti-BDNF (1:1000; Calbiochem, Gibbstown, N.J., USA); rabbit polyclonal anti-TrkB (total) (1:500; Santa Cruz Biotechnology, Santa Cruz, Calif., USA); rabbit polyclonal anti-pTrkB (Tyr706) (1:400; Santa Cruz Biotechnology, Santa Cruz, Calif., USA), TrkC (1:1000; Cruz Biotechnology, Santa Cruz, Calif., USA); and pTrkY490 (1:500; Upstate USA Inc., Charlottesville, Va., USA). For loading control, the blots were developed with rabbit polyclonal antibody to GAPDH (1:2000; Santa Cruz Biotechnology, Santa Cruz, Calif., USA). […]

[2] = target: T2, TrkB receptor (Homo sapiens, UniProt Q16620); assay: Competition with BDNF for activation (pTrkB) of TrkB in NIH 3T3 cells stably expressing TrkB; format: cell-based; settings: 0.05 μM to 10 μM with BDNF 1 ng/ml (0.04 nM), 15 min; dose-dependent
T2 construct: host or cells: NIH 3T3 fibroblasts, G418 selection
T2 sequence (Q16620 32-822): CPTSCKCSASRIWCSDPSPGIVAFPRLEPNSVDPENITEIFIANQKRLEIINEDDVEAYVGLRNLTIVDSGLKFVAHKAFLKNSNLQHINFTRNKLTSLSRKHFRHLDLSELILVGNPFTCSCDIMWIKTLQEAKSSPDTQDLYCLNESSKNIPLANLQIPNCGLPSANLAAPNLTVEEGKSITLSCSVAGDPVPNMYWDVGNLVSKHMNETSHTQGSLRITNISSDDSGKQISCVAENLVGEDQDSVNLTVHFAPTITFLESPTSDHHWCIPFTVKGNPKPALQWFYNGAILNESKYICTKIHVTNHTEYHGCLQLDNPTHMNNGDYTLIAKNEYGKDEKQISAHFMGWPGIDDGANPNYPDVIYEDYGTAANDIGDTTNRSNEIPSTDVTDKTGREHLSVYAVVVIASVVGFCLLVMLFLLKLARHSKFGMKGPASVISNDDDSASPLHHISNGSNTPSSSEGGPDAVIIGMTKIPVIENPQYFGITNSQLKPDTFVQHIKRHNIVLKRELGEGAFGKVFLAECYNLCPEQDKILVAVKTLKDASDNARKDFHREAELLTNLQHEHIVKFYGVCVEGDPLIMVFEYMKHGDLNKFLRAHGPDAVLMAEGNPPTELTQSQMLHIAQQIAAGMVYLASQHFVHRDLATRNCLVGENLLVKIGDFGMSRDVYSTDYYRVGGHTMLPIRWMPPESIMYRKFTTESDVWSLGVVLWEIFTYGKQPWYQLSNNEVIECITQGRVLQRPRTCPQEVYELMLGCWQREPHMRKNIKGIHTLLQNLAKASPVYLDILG
Protocol: To study the activation of the TrkB receptor with BDNF and/or with the peptides, NIH 3T3 cells were used, stably transfected with the TrkB receptor (obtained from Montreal Neurological Institute, Montreal, Quábec, Canada). The cell culture medium used for this cell line was: DMEM-high glucose, 10 percent normal calf serum, 1 percent glutamax, 1 percent sodium pyruvate, 1 percent penicillin-streptomycin; supplemented with the selection antibiotic G418 in a final concentration of 100 μg/ml (to guaranty the stable expression of the Trkb transgene). All Medium components were purchase from Gibco Life Technologies, Invitrogen, Grand Island, N.Y., USA.
To evaluate a possible competitive role of the peptides in the activation of TrkB receptor by BDNF, a fibroblast (NIH 3T3) cell line stably expressing the TrkB receptor was used. Cells were vehicle-treated or treated with BDNF 1 ng/ml (0.04 nM) in the presence or absence of 0.05 μM to 10 μM B-5 or B-3 for 15 min (FIG. 7A). […] As observed in primary neuronal cultures (shown in FIGS. 5C and D), the treatment with the peptides alone for 15 min induced a weak but significant activation of TrkB receptor when compared to control (ANOVA, p<0.001).

Substance	increase in the phosphorylation of the TrkB receptor [1]	TrkB levels [1]	activation of TrkB (pTrkB Tyr 706 normalized to total TrkB) [1]	competitive inhibition of the activation of TrkB receptor by BDNF [2]
Ac-S-KKR-CONH2 [Peptide B-3]	significant	increased	relatively weak activation	significant competitive inhibition
Ac-I-K-R-G-CONH2 [Peptide B-5]	significant	increased	relatively weak activation	significant competitive inhibition
